# Laboratory results reported in patent US11583547B2, “Chemotherapy drug-sensitizing method, agent composition and use thereof” (FU JEN CATHOLIC UNIVERSITY, priority 2020, dated 2023).
# What was measured:
# Type in all cases: cell-based
# [1] = test system: BxPC-3 pancreatic cancer cells; test: western blot of cell apoptosis marker (cleaved PARP) after antagomiR-1976 transfection; details: BxPC-3, antagomiR-1976 transfection; FIG. 4A
# Source text: (§1) FIGS. 4A and 4B are cell apoptosis charts of BxPC-3 and AsPC-1 pancreatic cancer cells with antagomiR-1976 transfection obtained from western blot analysis applied in the chemotherapy drug-sensitizing method in accordance with the preferred embodiment of the present invention. Referring now to FIG. 4A, by way of example, results of pancreatic cancer cell BxPC-3 applied in the chemotherapy drug-sensitizing method in accordance with the present invention are shown. Referring now to FIG. 4B, by way of example, results of pancreatic cancer cell AsPC-1 applied in the chemotherapy drug-sensitizing method in accordance with the present invention are shown.
# [2] = test system: AsPC-1 pancreatic cancer cells; test: as above; details: AsPC-1, antagomiR-1976 transfection; FIG. 4B
# Source text: as §1
# [3] = test system: pancreatic cancer cells; test: qPCR analysis of miR-1976 expression after gemcitabine induction; details: induction by gemcitabine; FIG. 1B
# Source text: FIGS. 1A and 1B are microRNA expression charts released in extracellular vesicle and intracellular obtained from micro array analysis and qPCR analysis applied in the chemotherapy drug-sensitizing method in accordance with the preferred embodiment of the present invention.
Compound,amount of pancreatic cancer cell apoptosis marker (cleaved PARP) [1],amount of pancreatic cancer cell apoptosis marker (cleaved PARP) [2],amount of miR-1976 in pancreatic cancer cells [3]
"5′-ACAGCAAGGAGGGCAGGAGG-3′ (listed as RNA, chemistry not given here) [antagomiR-1976]",obviously increased,obviously increased,–
Nc1ccn([C@@H]2O[C@H](CO)[C@@H](O)C2(F)F)c(=O)n1 [gemcitabine],–,–,selectively increased
